This data set is described as follows: Phytosphingosine solubility with various cyclodextrins in aqueous solution. It counts as physicochemical. The note with it: aqueous 2-hydroxypropyl-α-cyclodextrin solution, aqueous with cosolvent or surfactant or cyclodextrin, thermodynamic from solid; excess of pure phytosphingosine (20 g/l) incubated with 2-hydroxypropyl-α-cyclodextrin solution; quantified by LC-MS; read-out: Solubilized phytosphingosine in the supernatants. As to the method:
Phytosphingosine amounts (mg/l) measured in supernatants after incubation of an excess of pure phytosphingosine (20 g/l) with each of the three types of cyclodextrin at various concentrations.
These experiments were conducted to determine if and to what extent cyclodextrins solubilized sphingoid bases. To that end, an excess of phytosphingosine was incubated with increasing concentrations of solutions of three different types of cyclodextrin species—α-cyclodextrin, 2-hydroxypropyl-α-cyclodextrin, 2-hydroxypropyl-β-cyclodextrin. Solubilized phytosphingosine in the supernatants were quantified by liquid chromatography-mass spectrometry (LC-MS) using standards prepared in the same cyclodextrin solutions.

The values below come from patent US11155841B2, “Method for producing sphingoid base or sphingolipid” (AJINOMOTO CO., INC., priority 2015, dated 2021).

Bounds are passed on as bounds.

As for `CCCCCCCCCCCCCC[C@@H](O)[C@@H](O)[C@@H](N)CO` [phytosphingosine], the solubility is above 9000 µg/mL.
